From US12116358B2, “Substituted indoles and methods of use thereof” (EPIZYME, INC., priority 2018, dated 2024)
Like-named read-outs stand apart in the source and are kept apart here.

Legend:
H3K36me3 in A549 cells = test: In-Cell Western (ICW) assay of SETD2 inhibitors (A549 assay); type: cell-based, human; conditions: A549 cells, read-out: SETD2 A549
How it was run: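 A549 cells seeded at 4,000/well onto compound and incubated 3 days at 37° C. Methanol-fixed cells stained overnight at 4° C with anti-H3K36me3 (1:1000), then IRDye 800CW secondary with DRAQ5 DNA counterstain. Plates read by Licor imaging at 700 and 800 channels.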

SETD2(1434-1711) = molecular target: T1, SETD2(1434-1711) (Homo sapiens, UniProt Q9BYW2); test: SETD2 (1434-1711) assay; type: biochemical; conditions: read-out: SETD2 (1434-1711)
T1 construct: SETD2 (1434-1711) Assay; catalogue N/A
T1 sequence (Q9BYW2 1434-1711): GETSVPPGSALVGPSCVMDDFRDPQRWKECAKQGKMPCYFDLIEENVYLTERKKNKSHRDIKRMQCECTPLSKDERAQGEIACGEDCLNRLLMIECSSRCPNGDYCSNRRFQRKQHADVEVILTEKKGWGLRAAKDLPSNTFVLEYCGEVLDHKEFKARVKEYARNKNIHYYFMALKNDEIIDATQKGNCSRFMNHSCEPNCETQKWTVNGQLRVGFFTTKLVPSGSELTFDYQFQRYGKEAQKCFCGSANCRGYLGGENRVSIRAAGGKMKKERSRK

Structure (SMILES)	IC50 (H3K36me3 in A549 cells) [nM]	IC50 (SETD2(1434-1711)) [nM]	IC50 (H3K36me3 in A549 cells; Homo sapiens) [nM]
Cc1ccc(F)c2cc(C(=O)NC3CCCC(N4CCC(N5CCOC5=O)C4)C3)[nH]c12 (centres unmarked) [compound 959]	> 2000	2300	–
Cc1ccc(F)c2cc(C(=O)Nc3cccc(N4CCOC(C5CC5)C4)c3)[nH]c12 (centres unmarked) [compound 143]	–	60	300
Cc1ccc(F)c2cc(C(=O)NC3CCCC(N4CCCN(S(C)(=O)=O)CC4)C3)[nH]c12 (centres unmarked) [compound 981]	600	30	–
CC(=O)N1CCN(C[C@H]2CCC[C@@H](NC(=O)c3cc4c(F)ccc(C)c4[nH]3)C2)CC1 [compound 1032]	–	200	400
Cc1ccc(F)c2cc(C(=O)NCCc3ccccc3N3CCN(C)CC3)[nH]c12 [compound 540]	–	1700	> 25000
Cc1ccc(F)c2cc(C(=O)Nc3cn(C4CCN(C)CC4)cn3)[nH]c12 [compound 561]	–	> 10000	> 25000
Cc1ccc(F)c2cc(C(=O)Nc3cccc(C4CNC(=O)C4)c3)[nH]c12 (centres unmarked) [compound 177]	–	100	400
COCCN(C(C)=O)C1CCN(C2CCCC(NC(=O)c3cc4c(F)ccc(C)c4[nH]3)C2)C1 (centres unmarked) [compound 843]	800	200	–
Cc1ccc(F)c2cc(C(=O)Nc3cccc(-c4cn[nH]c4)c3)[nH]c12 [compound 252]	600	200	–
Cc1ccc[n+]([O-])c1C(NC(=O)c1cc2cccc(C)c2[nH]1)C1CC1 (centres unmarked) [compound 576]	–	18600	> 25000
Cc1ccc(F)c2cc(C(=O)Nc3cc(N4CCN(C)CC4)c4ncccc4c3)[nH]c12 [compound 350]	–	80	> 2000
Cc1cc(N2CCN(CCCc3cccnc3)CC2)cnc1C(NC(=O)c1cc2cccc(C)c2[nH]1)C1CC1 (centres unmarked) [compound 440]	–	800	5000
Cc1ccc(F)c2cc(C(=O)Nc3cccc(-c4nnc(N)o4)c3)[nH]c12 [compound 319]	–	100	1400
Cc1ccc(F)c2cc(C(=O)NC3C(=O)NCCc4cccnc43)[nH]c12 (centres unmarked) [compound 361]	–	1300	> 2000
Cc1cccc2cc(C(=O)NC3CCC(NC(=O)CCN)C3)[nH]c12 (centres unmarked) [compound 600]	–	> 50000	> 25000
Cc1ccc(F)c2cc(C(=O)NC3CCCC(N4CCN(C5CC5)C(=O)C4)C3)[nH]c12 (centres unmarked) [compound 977]	200	20	–
Cc1ccc(F)c2cc(C(=O)Nc3cccc(N4CCC(N)CC4)c3)[nH]c12 [compound 192]	–	30	400
Cc1ccc(F)c2cc(C(=O)Nc3cccc(N4CCC(C)(N(C)C)CC4)c3)[nH]c12 [compound 222]	500	20	–
COC(=O)CC(NC(=O)c1cc2cccc(C)c2[nH]1)c1ccccc1F (centres unmarked) [compound 556]	> 25000	9900	–
Cc1cc(-c2ccc(N)nc2)cnc1C(NC(=O)c1cc2cccc(C)c2[nH]1)C1CC1 (centres unmarked) [compound 426]	3900	400	–
Cc1cccnc1C(CCC(=O)N1CCC(O)CC1)NC(=O)c1cc2cccc(C)c2[nH]1 (centres unmarked) [compound 434]	4600	4300	–
Cc1ccc(F)c2cc(C(=O)Nc3cc(F)cc(N4CCN(C(=O)CN(C)C)CC4)c3)[nH]c12 [compound 62]	100	9	–
Cc1ccc(F)c2cc(C(=O)NC3CCCC(N4CCn5c(c[nH]c5=O)C4)C3)[nH]c12 (centres unmarked) [compound 1166]	> 2000	1000	–
CC(=O)N(C)C1CN(C2CCCC(NC(=O)c3cc4c(F)ccc(C)c4[nH]3)C2)C1 (centres unmarked) [compound 960]	> 2000	20	–
COC1(C)CCN(c2cccc(NC(=O)c3cc4c(F)ccc(C)c4[nH]3)c2)CC1 [compound 262]	–	200	700
CC(=O)N1CCC12CN(C1CCCC(NC(=O)c3cc4c(F)ccc(C)c4[nH]3)C1)C2 (centres unmarked) [compound 951]	> 2000	7000	–

Structure (SMILES)	IC50 (H3K36me3 in A549 cells) [nM]	IC50 (SETD2(1434-1711)) [nM]	IC50 (H3K36me3 in A549 cells; Homo sapiens) [nM]
Cc1cccnc1C(CCC(=O)NC1CCC(N)CC1)NC(=O)c1cc2cccc(C)c2[nH]1 (centres unmarked) [compound 579]	> 25000	23000	–
Cc1ccc(F)c2cc(C(=O)Nc3cccc(N4CCCC4)c3)[nH]c12 [compound 332]	1600	200	–
Cc1ccc(F)c2cc(C(=O)Nc3cccc(-c4nnc(C5CC5)o4)c3)[nH]c12 [compound 119]	200	30	–
Cc1ccc(F)c2cc(C(=O)Nc3cc(C(F)F)cc(N4CCC(N(C)C)CC4)c3)[nH]c12 [compound 311]	–	30	1300
Cc1ccc(F)c2cc(C(=O)Nc3cccc(N4CCC(O)(C5CCN(C)CC5)CC4)c3)[nH]c12 [compound 268]	–	60	700
Cc1cccnc1C(CCCC(=O)N1CCOCC1)NC(=O)c1cc2cccc(C)c2[nH]1 (centres unmarked) [compound 494]	13200	6000	–
Cc1ccc(F)c2cc(C(=O)Nc3cc(F)cc(N4CCC5(CCNCC5(F)F)C4)c3)[nH]c12 (centres unmarked) [compound 28]	–	10	70
Cc1ccc(F)c2cc(C(=O)N[C@@H]3CCC[C@H](N4CCN(C(=O)CN(C)C)CC4)C3)[nH]c12 [compound 854]	500	20	–
Cc1ccc(F)c2cc(C(=O)Nc3cccc(N4CCN(C)C(=O)C4)c3)[nH]c12 [compound 58]	100	40	–
Cc1ccc(F)c2cc(C(=O)Nc3cccc(N4CCC5(CCCN5)CC4)c3)[nH]c12 [compound 86]	200	5	–
Cc1cccnc1C(NC(=O)c1cc2cccc(C)c2[nH]1)C1CCC1 (centres unmarked) [compound 513]	17400	4000	–
COC(=O)N1CCC2(CC1)CCN(c1cccc(NC(=O)c3cc4c(F)ccc(C)c4[nH]3)c1)C2 [compound 83]	200	20	–
Cc1ccc(F)c2cc(C(=O)N[C@@H]3CCC[C@H](N4CCN(C5CCOC5)CC4)C3)[nH]c12 (some centres unmarked) [compound 924]	–	100	600
Cc1ccc(F)c2cc(C(=O)N[C@@H]3CCC[C@H](N4CCC(N(C)C(=O)CO)C4)C3)[nH]c12 (some centres unmarked) [compound 934]	–	10	100
Cc1cccc2cc(C(=O)Nc3cccc(CN4CCN(C)CC4)c3)[nH]c12 [compound 488]	11800	2500	–
Cc1ccc(F)c2cc(C(=O)N[C@@H]3CCC[C@H](N4CCC(N(C)C(=O)CN(C)C)C4)C3)[nH]c12 (some centres unmarked) [compound 908]	–	4	600
CC[C@@H]1CN([C@@H]2CCC[C@@H](NC(=O)c3cc4c(F)ccc(C)c4[nH]3)C2)CCN1C(C)=O [compound 1095]	–	600	> 2000
Cc1cccnc1C(NC(=O)c1cc2cccc(Cc3ccn[nH]3)c2[nH]1)C1CC1 (centres unmarked) [compound 618]	–	> 200000	> 25000
Cc1ccc(F)c2cc(C(=O)Nc3cccc(CC(N)=O)c3)[nH]c12 [compound 300]	–	200	1200
CCN(C(=O)CO)C1CCN(C2CCCC(NC(=O)c3cc4c(F)ccc(C)c4[nH]3)C2)C1 (centres unmarked) [compound 1129]	100	10	–
Cc1ccc(F)c2cc(C(=O)Nc3cccc(N4CCC(N5CCC5)C4)c3)[nH]c12 (centres unmarked) [compound 178]	–	10	400
Cc1ccc(F)c2cc(C(=O)Nc3cccc(N4CCN5C(=O)CCC5C4)c3)[nH]c12 (centres unmarked) [compound 27]	70	20	–
Cc1cccc2cc(C(=O)NC(c3cccc(CN(C)C)n3)C3CC3)[nH]c12 (centres unmarked) [compound 615]	> 25000	71100	–
CC(=O)N1CCN(c2nccc(NC(=O)c3cc4c(F)ccc(C)c4[nH]3)n2)CC1 [compound 295]	–	300	1100
Cc1ccc(F)c2cc(C(=O)Nc3cccc(-c4nnc(N)[nH]4)c3)[nH]c12 [compound 524]	20900	1500	–
CCC(NC(=O)c1cc2cccc(C)c2[nH]1)c1ncccc1C (centres unmarked) [compound 471]	–	5400	8500
